The values that follow come from PubChem BioAssay (NCI).

Test systems include OVCAR-4 ovarian; SN12C renal; CCRF-CEM leukemia; MOLT-4 leukemia; HCC-2998 colon; SR leukemia; NCI-H23 lung; ACHN renal; BT-549 breast; SNB-19 CNS; CAKI-1 renal.
Common to all, as to assay: NCI anticancer screen, dose series, 48 h

Structures are written as SMILES.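 Test compounds were applied to cells in 96-well plates for 48 hours at 5 doses. TGI: total growth inhibition.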

Take `COc1cc(/C=C\c2ccc(SC)cc2)cc(OC)c1OC`: the TGI in the experiment with OVCAR-4 ovarian was over 100 µM; with SN12C renal it was over 100 µM; in the experiment with CCRF-CEM leukemia, over 47.1 µM; in the experiment on MOLT-4 leukemia it was 28.9 µM; with HCC-2998 colon, 2.17 µM; in the experiment on SR leukemia, 15.1 µM. Further, the TGI in the experiment with NCI-H23 lung is 0.408 µM; with ACHN renal, over 100 µM; in the experiment with BT-549 breast it was over 100 µM.
As to `COCOc1cc(OC)ccc1C=O`, the TGI is over 100 µM in the experiment with OVCAR-4 ovarian; over 100 µM in the experiment with SN12C renal; over 100 µM in the experiment on SNB-19 CNS; over 100 µM with CCRF-CEM leukemia; over 100 µM in the experiment with MOLT-4 leukemia; 71.5 µM in the experiment on HCC-2998 colon. For the same compound, the TGI in the experiment on CAKI-1 renal was over 100 µM; in the experiment on SR leukemia it was 78.4 µM; in the experiment on NCI-H23 lung, over 100 µM; in the experiment on ACHN renal it was over 100 µM; in the experiment with BT-549 breast, over 100 µM.
For the compound `COc1cc(O)c(C(=O)/C=C/c2ccc(O)cc2)cc1Oc1ccc(C(=O)/C=C/c2ccc(O)cc2)c(O)c1`, the TGI is 8.37 µM with OVCAR-4 ovarian; 5.99 µM with SN12C renal; 25.1 µM with SNB-19 CNS; 33.8 µM in the experiment with CCRF-CEM leukemia; over 100 µM with MOLT-4 leukemia; 9.69 µM in the experiment with CAKI-1 renal. The TGI in the experiment on SR leukemia was over 100 µM; in the experiment with NCI-H23 lung, 8.88 µM; in the experiment with ACHN renal it was 5.02 µM; in the experiment on BT-549 breast, 9.19 µM.
For `Cc1cc(SCC(=O)c2ccc(Br)cc2)cc(C)[o+]1`, the TGI was 83.7 µM with OVCAR-4 ovarian; over 100 µM in the experiment with SN12C renal; over 100 µM in the experiment with SNB-19 CNS; 44 µM with CCRF-CEM leukemia; 56.2 µM with MOLT-4 leukemia; 75.2 µM with HCC-2998 colon. Moreover, the TGI in the experiment on CAKI-1 renal is over 100 µM; in the experiment on SR leukemia, over 100 µM; in the experiment on NCI-H23 lung, over 100 µM; in the experiment with ACHN renal, 96.2 µM; with BT-549 breast, 98.4 µM.
Turning to `COc1ccccc1NC(=S)N/N=C(/c1ccccc1)c1ccccn1`, the TGI with OVCAR-4 ovarian came out at 19.3 µM; with SN12C renal it was 16.7 µM; in the experiment on SNB-19 CNS, 21.8 µM; in the experiment on CCRF-CEM leukemia, 9.54 µM; with MOLT-4 leukemia it was 0.403 µM; with HCC-2998 colon, 29.1 µM. Further, the TGI with CAKI-1 renal was determined as 10.2 µM; in the experiment with SR leukemia, 1.34 µM; with NCI-H23 lung, 24.3 µM; in the experiment with ACHN renal, 11.8 µM; with BT-549 breast it was 23 µM.
In the case of `COC(=O)CCCc1ccc2c(c1)CCC2`, the TGI with OVCAR-4 ovarian, in the experiment on SN12C renal, with SNB-19 CNS, in the experiment on CCRF-CEM leukemia, in the experiment with MOLT-4 leukemia and in the experiment on HCC-2998 colon was over 100 µM each time. The TGI in the experiment on CAKI-1 renal, in the experiment with SR leukemia, in the experiment with NCI-H23 lung, with ACHN renal and in the experiment with BT-549 breast was over 100 µM in each case.
For the compound `COc1ccc2c(c1)CCC(CN1CCN(CCOC(c3ccc(F)cc3)c3ccc(F)cc3)CC1)=C2`, the TGI in the experiment on OVCAR-4 ovarian was over 100 µM; with SN12C renal, 26.3 µM; in the experiment with SNB-19 CNS it was over 100 µM; with CCRF-CEM leukemia, over 100 µM; in the experiment on MOLT-4 leukemia, 48.7 µM; in the experiment on HCC-2998 colon, 19 µM. The TGI was over 100 µM with CAKI-1 renal; 27.7 µM in the experiment with SR leukemia; 38.2 µM in the experiment with NCI-H23 lung; over 100 µM in the experiment with ACHN renal; 35.6 µM in the experiment with BT-549 breast.
As to `CC(C)(C)[C@@H]1NC(=O)CN1C(=O)OCc1ccccc1`, the TGI in the experiment with OVCAR-4 ovarian, in the experiment with SN12C renal, with SNB-19 CNS, in the experiment with CCRF-CEM leukemia, in the experiment on MOLT-4 leukemia and with HCC-2998 colon was over 100 µM each time. The TGI with SR leukemia, with NCI-H23 lung, with ACHN renal and in the experiment on BT-549 breast was over 100 µM each time.
As for `O=c1[nH]c2ccc(CC(=S)N3CCN(c4ccccc4)CC3)cc2s1`, the TGI in the experiment with SN12C renal, in the experiment on SNB-19 CNS, with CCRF-CEM leukemia, with MOLT-4 leukemia, in the experiment on CAKI-1 renal and with SR leukemia was over 100 µM throughout. Also, the TGI in the experiment on NCI-H23 lung, in the experiment on ACHN renal and in the experiment on BT-549 breast was over 100 µM in each case.
Regarding `CC1(C)OC1CC/C(=C/CBr)CBr` (stereo unspecified), the TGI with OVCAR-4 ovarian worked out at 32.1 µM; with SN12C renal it was 29.1 µM; with SNB-19 CNS it was 28.6 µM; with CCRF-CEM leukemia, 34.1 µM; in the experiment on MOLT-4 leukemia it was 57.9 µM; with HCC-2998 colon, 29.8 µM. Also, the TGI with CAKI-1 renal worked out at 32.3 µM; in the experiment with SR leukemia it was 64.6 µM; in the experiment on NCI-H23 lung, 29.6 µM; with ACHN renal it was 30.9 µM; in the experiment with BT-549 breast, 30.4 µM.
For the compound `CC(=O)C1=CC=C/C1=N\Nc1ccccc1`, the TGI in the experiment on OVCAR-4 ovarian was found to be 20.1 µM; with SN12C renal, 22.7 µM; in the experiment on SNB-19 CNS it was 47.6 µM; with CCRF-CEM leukemia, 11.2 µM; in the experiment with MOLT-4 leukemia it was 29.6 µM; in the experiment on HCC-2998 colon, 20.5 µM. For the same compound, the TGI with CAKI-1 renal came to 11.8 µM; with SR leukemia it was 4.95 µM; in the experiment with NCI-H23 lung it was 26.6 µM; in the experiment with ACHN renal it was 23.4 µM; with BT-549 breast it was 27.4 µM.
With `CCOC(=O)C1(C(=O)OCC)C[C@H]2CON=C2[C@@H]1c1ccc(C(F)(F)F)cc1`, the TGI is 61.4 µM with OVCAR-4 ovarian; over 100 µM in the experiment with SN12C renal; over 100 µM in the experiment on SNB-19 CNS; 23.7 µM in the experiment with CCRF-CEM leukemia; over 100 µM in the experiment with MOLT-4 leukemia; 87.4 µM with HCC-2998 colon. Besides, the TGI is over 100 µM with CAKI-1 renal; over 100 µM in the experiment on SR leukemia; over 100 µM in the experiment on NCI-H23 lung; 34.4 µM in the experiment with ACHN renal; over 100 µM in the experiment on BT-549 breast.
